Reference: patent US10981932B2, “Macrocyclic indole derivatives” (Bayer Aktiengesellschaft, priority 2016, dated 2021)
“And” between values parts separate entries of the source, which are not always exact repeats. Equal values may be shown once. Where a name gives a salt, the structure may show the parent alone. Read-outs that look alike come from different tables or passages of the source.

Assays:
[1] = test system: A2780; test: Anti-proliferative effect (CellTiter-Glo, 72 h), A2780; type: cell-based; conditions: A2780 cells, median, read-out: IC50 antiproliferation assay A2780 [M] (median)
Procedure, shortened: (§1)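 Luminescence from CellTiter-Glo, read 10 min after reagent addition, reports viable cell content after 72 h of compound treatment at 37 °C. A reference plate read at day 0 gives the starting baseline.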

[2] = biological target: MCL-1 (Homo sapiens, UniProt Q07820); test: Protein-protein interaction assay MCL-1/Noxa BH3 peptide (MCL-1 assay), TR-FRET; type: binding; conditions: MBP-MCL-1 / Noxa BH3-derived peptide, median
MCL-1, sequence (Q07820 whole entry): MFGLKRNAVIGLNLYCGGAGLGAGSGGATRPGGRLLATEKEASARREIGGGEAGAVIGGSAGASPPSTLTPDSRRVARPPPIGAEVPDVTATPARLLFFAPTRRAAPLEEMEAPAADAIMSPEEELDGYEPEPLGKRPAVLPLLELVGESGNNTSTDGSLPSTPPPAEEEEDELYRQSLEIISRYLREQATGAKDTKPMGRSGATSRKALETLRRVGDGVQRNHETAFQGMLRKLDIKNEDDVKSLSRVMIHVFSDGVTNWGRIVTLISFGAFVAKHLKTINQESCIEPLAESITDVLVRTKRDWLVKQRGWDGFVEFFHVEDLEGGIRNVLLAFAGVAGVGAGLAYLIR
Procedure, shortened: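 Inhibition values were normalized between DMSO controls with all reagents and controls lacking MCL-1. The binding competition used 1 nM MBP-MCL-1 in pH 7 Tris buffer containing 50 mM KF and 100 mM NaCl, with a 10 min compound preincubation at 22 °C.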

[3] = test system: SUDHL5; test: Induction of cytotoxicity (CellTiter-Glo, 5 h), SUDHL5
[4] = test system: SUDHL5; test: Induction of caspase-3/7 activity (Caspase-Glo 3/7), SUDHL5; type: cell-based; conditions: caspase-3/7 induction, SUDHL5 cells, 3 h treatment, median
Procedure, shortened: (§2)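 Apoptosis induction measured as caspase-3/7 activity (Caspase-Glo 3/7) in DLBCL lines after 3 h treatment at 37 °C; EC50 derived relative to the reference compound's maximal induction, with C0 fixed at 1.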

[5] = test system: SUDHL10; test: Induction of cytotoxicity (CellTiter-Glo, 5 h), SUDHL10
[6] = test system: SUDHL5; test: Anti-proliferative effect (CellTiter-Glo, 72 h), SUDHL5; type: cell-based; conditions: SUDHL5 cells, antiproliferation, 72 h incubation, median, read-out: Antiproli SUDHL5 [M] (median)
Procedure, shortened: as §1

[7] = test system: SUDHL10; test: Anti-proliferative effect (CellTiter-Glo, 72 h), SUDHL10; type: cell-based; conditions: SUDHL10 cells, antiproliferation, 72 h incubation, median, read-out: Antiproli SUDHL10 [M] (median)
Procedure, shortened: as §1

[8] = test system: SUDHL10; test: Induction of caspase-3/7 activity (Caspase-Glo 3/7), SUDHL10; type: cell-based; conditions: caspase-3/7 induction, SUDHL10 cells, 3 h treatment, median
Procedure, shortened: as §2

[9] = test system: OPM2; test: Anti-proliferative effect (CellTiter-Glo, 72 h), OPM2; type: cell-based; conditions: OPM2 cells, median, read-out: IC50 antiproliferation assay OPM2 [M] (median)
Procedure, shortened: as §1

[10] = Homo sapiens, SU-DHL-5, 5 h, read-out: Cytotox SUDHL5 [M] (median), SUDHL5 cells, cytotoxicity induction, CellTiter-Glo, 5 h incubation, median
[11] = Homo sapiens, SU-DHL10, 5 h, read-out: Cytotox SUDHL10 [M] (median), SUDHL10 cells, cytotoxicity induction, CellTiter-Glo, 5 h incubation, median
[12] = read-out: Cytotox SUDHL10 [M] (median), SUDHL10 cells, cytotoxicity induction, CellTiter-Glo, 5 h incubation, median
[13] = read-out: Cytotox SUDHL5 [M] (median), SUDHL5 cells, cytotoxicity induction, CellTiter-Glo, 5 h incubation, median

Row | Structure (SMILES) | IC50 ([1]; Homo sapiens, A2780, 72 h) [M] | IC50 [2] [µM] | IC50 [3, 10] [M] | EC50 ([4]; Homo sapiens, SU-DHL-5, 3 h) [µM] | IC50 [5, 11] [M] | IC50 ([6]; Homo sapiens, SU-DHL-5, 72 h) [M] | IC50 ([7]; Homo sapiens, SU-DHL10, 72 h) [M] | EC50 ([8]; Homo sapiens, SU-DHL10, 3 h) [µM] | IC50 ([9]; Homo sapiens, OPM-2, 72 h) [M] | IC50 [5, 12] [M] | IC50 [6] [M] | IC50 [7] | EC50 [8] [µM] | IC50 [1] [M] | IC50 [3, 13] [M] | EC50 [4] [µM] | IC50 [9] [M]
1 | CN1CCCn2c(C(=O)O)c(CCCOc3cccc4ccccc34)c3cccc(c32)-c2c(CN3CCOCC3)nn(C)c2C1 (racemic) [Example 1-42, (rac)-7,9-dimethyl-11-(morpholin-4-ylmethyl)-1-[3-(naphthalen-1-yloxy)propyl]-4,5,6,7,8,9-hexahydropyrazolo[3′,4′:7,8][1,5]diazecino[9,10,1-hi]indole-2-carboxylic Acid] | > 3.3e-05 | 0.0202 | 1.19e-05 | 10.9 | > 3.3e-05 | 7.08e-06 | 1.64e-05 | 14.9 | 3.29e-05 | – | – | – | – | – | – | – | –
2 | Cn1nc(COc2ccc(N3CCN(C(=O)C4CC4)CC3)cc2)c2c1COCCCCn1c(C(=O)O)c(CCCOc3cccc4ccccc34)c3cccc-2c31 (racemic) [Example 1-21, (rac)-3-({4-[4-(cyclopropylcarbonyl)piperazin-1-yl]phenoxy}methyl)-1-methyl-7-[3-(naphthalen-1-yloxy)propyl]-10,11,12,13,15-hexahydropyrazolo[4′,3′:9,10][1,6]oxazacycloundecino[8,7,6-hi]indole-8-carboxylic Acid] | 1.29e-05 | 0.00106 | 2.31e-06 | 2.34 | 3.26e-06 | 2.41e-06 | 2.49e-06 | 2.82 | 3.61e-06 | – | – | – | – | – | – | – | –
3 | COCc1nn(C)c2c1-c1cccc3c(CCCOc4cccc5ccccc45)c(C(=O)O)n(c13)CCCCOC2 (single isomer, unassigned; enantiomer 1) [Example 159, 3-(methoxymethyl)-1-methyl-7-[3-(naphthalen-1-yloxy)propyl]-1,10,11,12,13,15-hexahydropyrazolo[4′,3′:9,01][1,6]oxazacycloundecino[8,7,6-hi]indole-8-carboxylic acid-N-ethylethanamine Salt (Enantiomer 1)] | > 3.3e-05 | 0.0238 | 1.76e-05 | 13.8 | 3.05e-05 | – | – | 28.6 | > 3.3e-05 | > 3.3e-05 | 1.75e-05 | 2.98e-05 M and > 3.3e-05 M | > 33 | – | – | – | –
4 | Cc1nn(C)c2c1-c1cccc3c(CCCOc4cccc5ccccc45)c(C(=O)O)n(c13)CCCCOC2 (racemic) [Example 1-33, (rac)-1,3-dimethyl-7-[3-(naphthalen-1-yloxy)propyl]-1,10,11,12,13,15-hexahydropyrazolo[4′,3′:9,10][1,6]oxazacycloundecino[8,7,6-hi]indole-8-carboxylic Acid] | > 3.3e-05 | 0.009 | 7.47e-06 | 5.78 | 2.19e-05 | 9.78e-06 | 1.83e-05 | 13.7 | 2.23e-05 | – | – | – | – | – | – | – | –
5 | CCS(=O)(=O)N1CCN(c2ccc(N3CCCn4c(C(=O)O)c(CCCOc5cccc6ccccc56)c5cccc(c54)-c4c(C)nn(C)c4C3)cc2)CC1 (single isomer, unassigned; enantiomer 2) [Example 1-110, 7-{4-[4-(Ethylsulfonyl)piperazin-1-yl]phenyl}-9,11-dimethyl-1-[3-(1-naphthyloxy)propyl]-4,5,6,7,8,9-hexahydropyrazolo[3′,4′:7,8][1,5]diazecino[9,10,1-hi]indole-2-carboxylic Acid (Enantiomer 2)] | – | 0.0581 | – | – | – | – | – | – | – | 1.69e-05 | 4.04e-06 | 2.58e-06 M | 15.3 | 7.54e-06 | 1.53e-05 | 15.3 | 8.62e-06
6 | COC1(c2ccc(OCc3nn(C)c4c3-c3cccc5c(CCCOc6cccc7ccccc67)c(C(=O)O)n(c35)CCCCOC4)cc2)CCOCC1 (single isomer, unassigned) [Example 1-67, 3-{[4-(4-methoxytetrahydro-2H-pyran-4-yl)phenoxy]methyl}-1-methyl-7-[3-(naphthalen-1-yloxy)propyl]-1,10,11,12,13,15-hexahydropyrazolo[4′,3′:9,10][1,6]oxazacycloundecino[8,7,6-hi]indole-8-carboxylic Acid] | – | 0.34 | – | – | – | – | – | – | – | 2.29e-05 | 9.8e-06 | 2.95e-06 M | 17.8 | 6.25e-06 | 1.22e-05 | 16.1 | 1.19e-05
7 | CCN(CC)S(=O)(=O)N1CCN(c2ccc(OCc3nn(C)c4c3-c3cccc5c(CCCOc6cccc7ccccc67)c(C(=O)O)n(c35)CCCCOC4)cc2)CC1 (racemic) [Example 1-3, (rac)-3-({4-[4-(diethylsulfamoyl)piperazin-1-yl]phenoxy}methyl)-1-methyl-7-[3-(naphthalen-1-yloxy)propyl]-1,10,11,12,13,15-hexahydropyrazolo[4′,3′:9,10][1,6]oxazacycloundecino[8,7,6-hi]indole-8-carboxylic Acid] | 4.86e-06 | 0.00378 | 2.68e-06 | 2 | 2.64e-06 | 1.27e-06 | 1.9e-06 | 2.36 | 2.11e-06 | – | – | – | – | – | – | – | –
8 | Cc1ccc2c(CCCOc3cccc4ccccc34)c(C(=O)O)n3c2c1-c1c(nn(C)c1C)COCCCC3 (racemic) [Example 075, (rac)-2,3,4-trimethyl-7-[3-(naphthalen-1-yloxy)propyl]-2,10,11,12,13,15-hexahydropyrazolo[4′,3′:9,10][1,6]oxazacycloundecino[8,7,6-hi]indole-8-carboxylic Acid] | 1.97e-05 | 0.00171 | 3.66e-06 | 3.25 | 8.23e-06 | 3.21e-06 | 2.63e-06 | 6.36 | 1.1e-05 | – | – | – | – | – | – | – | –
9 | Cc1c2c(nn1CCN1CCOCC1)COCCCCn1c(C(=O)O)c(CCCOc3cccc4ccccc34)c3cccc-2c31 (single isomer, unassigned; enantiomer 1) [Example 054, 3-methyl-2-[2-(morpholin-4-yl)ethyl]-7-[3-(naphthalen-1-yloxy)propyl]-2,10,11,12,13,15-hexahydropyrazolo[4′,3′:9,10][1,6]oxazacycloundecino[8,7,6-hi]indole-8-carboxylic acid-N-ethylethanamine Salt (Enantiomer 1)] | 2.48e-05 | 0.00156 | – | – | – | 8.08e-07 | – | – | – | 4.68e-06 | – | 2.44e-06 M | 6.64 | – | 1.61e-06 | 1.47 | 7.46e-06
10 | Cn1nc(COc2ccc(C3=CCOCC3)cc2)c2c1COCCCCn1c(C(=O)O)c(CCCOc3cccc4ccccc34)c3cccc-2c31 (single isomer, unassigned) [Example 1-63, 3-{[4-(3,6-dihydro-2H-pyran-4-yl)phenoxy]methyl}-1-methyl-7-[3-(naphthalen-1-yloxy)propyl]-1,10,11,12,13,15-hexahydropyrazolo[4′,3′:9,10][1,6]oxazacycloundecino[8,7,6-hi]indole-8-carboxylic Acid] | – | 0.00864 | – | – | – | – | – | – | – | 7.04e-06 | 3.37e-06 | 7.77e-06 M | 7.32 | 1.11e-05 | 6.23e-06 | 7.66 | 1.18e-05
11 | CN(C)S(=O)(=O)N1CCN(c2ccc(OCc3nn(C)c4c3-c3cccc5c(CCCOc6cccc7ccccc67)c(C(=O)O)n(c35)CCCCOC4)cc2)CC1 (single isomer, unassigned; enantiomer 2) [Example 1-20, 3-({4-[4-(dimethylsulfamoyl)piperazin-1-yl]phenoxy}methyl)-1-methyl-7-[3-(naphthalen-1-yloxy)propyl]-1,10,11,12,13,15-hexahydropyrazolo[4′,3′:9,10][1,6]oxazacycloundecino[8,7,6-hi]indole-8-carboxylic Acid (Enantiomer 2)] | 1.38e-05 | 0.00285 | – | – | – | – | 2.19e-06 | – | 2.32e-06 | 3.06e-06 | 1.25e-06 | – | 1.95 | – | 2.11e-06 | 1.63 | –
